Experimental data: PMC4559561, “Radioiodinated PARP1 tracers for glioblastoma imaging” (EJNMMI Research, 2015)
Several values for one entry are separate records, joined by “and”; a condition that tells them apart may be missing. Identical values can stand only once.

Legend:
[1] = Blood half-life by serial blood sampling; type: in vivo, mouse; settings: healthy athymic nude mice, 50 μCi i.v.
Description: Blood half-life was determined by measuring the activity in serial blood samplings. Specifically, healthy female nude mice (8–10 weeks old, 20–25 g in weight, n = 3) were injected via the tail vein with 50 μCi [^131I]-I2-PARPi in 200 μL of solution PBS/PEG300 (10:1). The blood was sampled from the saphenous vein at 5, 15, 30, 60, 120, and 240 min post injection. The blood was weighed and radioactivity was measured on a Wizard 2470 Automatic Gamma Counter (Perkin Elmer, Waltham, MA). Measurements in counts per minute were calculated as the mean %ID/g. The blood half-life was calculated using Prism 6.0c (GraphPad Software, La Jolla, CA).

[2] = In vitro whole blood stability; type: in vitro ADME; settings: mouse blood, 37 °C, radio-HPLC
Description: The in vitro stability was assessed by incubating 6 μCi [^131I]-PARPi in mouse blood for 0 to 60 min at 37 °C. At baseline, 15, 30, and 60 min, the samples were immediately placed on ice and mixed 1:1 with a solution of AcN/DMSO (250 μL) and then vigorously vortexed for 30 s to precipitate out serum protein. The sample was centrifuged at 3000 RCF for 3 min at 4 °C, and the supernatant was collected. This procedure was repeated three times, and the combined supernatants were analyzed by HPLC equipped with radioactive detector (Shimadzu, Kyoto, Japan), collecting samples every 30 s. Radioactivity of each fraction was measured on a Wizard 2470 Automatic Gamma Counter (Perkin Elmer, Waltham, MA), and the blood stability was analyzed using Prism 6.0c (GraphPad Software, La Jolla, CA).

[3] = test system: U251 MG subcutaneous xenografts; assay: Biodistribution in U251 MG xenograft mice; type: in vivo, mouse; settings: 2 h after tracer injection
Description: (§1) Biodistribution experiments were conducted on female nude mice (8–10 weeks old and 20–25 g in weight, n = 21) bearing U87 MG or U251 MG subcutaneous xenografts. The radiolabeled small molecule preparation ([…] of [^131I]-I2-PARPi in 200 μL of a solution 90 % PBS 10 % PEG300) was administrated via the lateral tail vein. To determine the optimal specific activity to achieve the highest tumor to organ ratio, various specific activities were tested (5, 50, and 250 mCi/μmol) in mice bearing U87 MG tumors. The compound was allowed to circulate for 2 h post injection at which time the mice were sacrificed and organs were harvested (n = 3). After determining the optimal specific activity, the optimal time for imaging was determined by testing the drug distribution in nude mice bearing U87 MG tumors at different time points. The drug was allowed to circulate for various times (1, 2, and 6 h), after which the mice were sacrificed (n = 3). The radioactive content in the tissue of interest (blood, tumor, muscle, bone, liver, spleen, kidney, heart, lung, pancreas, brain, skin, small intestine, large intestine, stomach, tail, thyroid, and feces) was measured on a Wizard 2470 Automatic Gamma Counter and the tissue-associated activity was calculated as the mean %ID/g.

[4] = test system: U87 MG subcutaneous xenografts; assay: Biodistribution in U87 MG xenograft mice; type: in vivo, mouse; settings: U87 MG tumor-bearing mice, 2 h post intravenous injection
Description: as §1

[5] = Chemical hydrophobicity index (CHI) by reverse phase HPLC, Log P derived from CHI; type: physicochemical; settings: for CHI (chromatographic hydrophobicity index): from HPLC retention time against standards
Description: Chemical hydrophobicity indices (CHIs) were measured using procedures developed previously. Briefly, reverse phase HPLC was used to measure the retention times of a set of standards with known CHI. A standard curve was then created to calculate the CHIs of all iodo-PARPi based on the HPLC retention time.

[6] = Plasma protein fraction by rapid equilibrium dialysis in mouse serum; type: in vitro ADME; settings: 10 μM compound in mouse serum vs PBS, 37 °C, read-out: Plasma Free Fraction
Description: The plasma protein fraction was determined using the Rapid Equilibrium Dialysis Device System (Life Technologies, Grand Island, NY) according to the manufacturer’s protocol. Membrane dialysis was performed with 10 μM of compound in mouse serum (500 μL) on one side of the membrane and PBS (750 μL) on the other side. The system was sealed with parafilm and incubated for 4 h at 37 °C on an orbital shaker set to 250 rpm. Thereafter, 400 μL of solution was taken from both sides, and samples were treated twice with an equal amount of AcN and vortexed to remove protein before HPLC analysis. After injection (100 μL), the I-PARPi peaks from each sample were then integrated and the protein bound fraction was determined. The data was analyzed using Prism 6.0c.

[7] = molecular target: T1, PARP1 high specific activity (HSA) enzyme (Homo sapiens, UniProt P09874); assay: PARP-1 IC50 determination, commercial colorimetric assay (Trevigen); type: biochemical; settings: 0.5 U PARP1 HSA enzyme, 10 min, histone-coated plates, triplicate
T1 construct: purchased Trevigen, Gaithersburg, MD
Description: A commercially available colorimetric assay (Trevigen, Gaithersburg, MD) was used to measure PARP-1 activity in vitro in the presence of varying concentrations of the different iodo-[…]. […] All experiments were carried out in triplicate. […] All reaction mixtures were adjusted to a final volume of 50 μl, and a final concentration of 1 % DMSO in assay buffer. The remainder of the assay was performed according to the manufacturer's instructions. PARP1 activity was measured by absorbance at 450 nm in each well using a SpectraMax M5 spectrophotometer with SoftMax Pro software (Molecular Devices, Sunnyvale, CA).

[8] = test system: U87 MG subcutaneous tumors; assay: In vivo blocking study: PARPi-FL uptake in tumors, ex vivo epifluorescence imaging; parameters: species or system mouse
Source text: One hour post injection, the mice were sacrificed and the tumors were resected and imaged with the IVIS spectrum fluorescence imaging system (PerkinElmer, Waltham, MA) using Living Image 4.4 software. The tumors were also imaged microscopically with the 5Live fluorescent confocal microscope using the 488 nm laser for PARPi-FL excitation.

U87 MG cells = assay: In vitro blocking study: competitive inhibition of PARPi-FL uptake; type: cell-based, human; settings: 20 min
Description: U87 MG cells were seeded into a 96-well plate in a concentration of 1 × 10^4 cells per well. After 24 h, the cells were incubated with either the fluorescent PARP1 inhibitor PARPi-FL (250 nM) alone or with one of the iodo-PARPi inhibitors at a 100-fold higher concentration (25 μM) for 20 min. […] All incubation solutions also included Hoechst 33342 nuclear stain (Sigma-Aldrich, St. Louis, MO). The cells were washed twice with media and once with PBS for 5 min each and imaged on an LSM 5Live confocal microscope (Zeiss, Oberkochen, Germany). All wells were imaged with the DAPI filter for the Hoechst staining and the FITC filter for the PARPi-FL staining. The DAPI and FITC channels were co-registered, and the green fluorescence in the location of the Hoechst staining was quantified for each image. The percent reduction in PARPi-FL uptake was calculated based on the level of fluorescence intensity seen in each image and normalized to the cells receiving no iodo-PARPi inhibitor. Experiments were performed in triplicate.

T1 sequence (P09874 whole entry): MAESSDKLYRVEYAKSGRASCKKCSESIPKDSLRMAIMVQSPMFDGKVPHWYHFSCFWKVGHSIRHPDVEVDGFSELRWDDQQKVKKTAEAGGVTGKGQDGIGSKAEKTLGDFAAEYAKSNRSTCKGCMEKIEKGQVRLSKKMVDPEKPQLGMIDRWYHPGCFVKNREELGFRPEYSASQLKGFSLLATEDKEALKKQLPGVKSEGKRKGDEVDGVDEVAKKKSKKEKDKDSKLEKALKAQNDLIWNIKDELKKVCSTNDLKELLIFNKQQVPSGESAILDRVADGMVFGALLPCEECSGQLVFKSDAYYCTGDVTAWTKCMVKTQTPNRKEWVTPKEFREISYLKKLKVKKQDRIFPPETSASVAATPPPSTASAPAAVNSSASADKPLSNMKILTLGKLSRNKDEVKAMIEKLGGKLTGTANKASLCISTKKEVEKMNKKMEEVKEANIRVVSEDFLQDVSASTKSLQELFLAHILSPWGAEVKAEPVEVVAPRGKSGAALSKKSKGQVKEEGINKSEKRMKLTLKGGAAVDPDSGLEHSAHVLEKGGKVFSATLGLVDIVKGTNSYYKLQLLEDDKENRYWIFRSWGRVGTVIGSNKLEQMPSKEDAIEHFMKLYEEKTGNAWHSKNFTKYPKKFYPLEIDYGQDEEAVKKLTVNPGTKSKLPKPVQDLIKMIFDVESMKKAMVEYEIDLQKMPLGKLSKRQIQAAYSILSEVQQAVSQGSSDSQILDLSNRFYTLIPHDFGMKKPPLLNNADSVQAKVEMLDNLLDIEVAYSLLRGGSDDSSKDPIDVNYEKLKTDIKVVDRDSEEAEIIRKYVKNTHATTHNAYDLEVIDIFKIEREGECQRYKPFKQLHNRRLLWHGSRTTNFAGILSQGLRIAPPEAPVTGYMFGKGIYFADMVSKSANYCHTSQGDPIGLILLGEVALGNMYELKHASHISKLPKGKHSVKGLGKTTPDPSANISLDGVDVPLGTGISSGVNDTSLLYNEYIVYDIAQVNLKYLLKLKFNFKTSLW

Q: With `O=C(c1ccc([131I])cc1)N1CCN(C(=O)c2cc(Cc3n[nH]c(=O)c4ccccc34)ccc2F)CC1` [[^131I]-I2-PARPi] as the compound, how does the alpha blood half-life [1] read?
A: 14.3 min

Q: And the beta blood half-life [1]?
A: 94.6 min

Q: What about the “share of alpha phase” value [1] of the same compound?
A: 96.25%

Q: What about the “share of beta phase” value [1] of the same compound?
A: 3.75%

Q: What about the “weighted blood half-life t1/2(weighted)” value [1] of the same compound?
A: 17.1 min

Q: What about the “in vitro blood stability” value [2] of the same compound?
A: stability of the drug over the course of 120 min

Q: What about the uptake in brain [3] of the same compound?
A: 0.01 ± 0.00 %ID/g and 0.011 ± 0.003 %ID/g

Q: What about the uptake in liver [3] of the same compound?
A: 2.35 ± 0.57 %ID/g and 2.4 ± 0.6 %ID/g

Q: And the uptake in muscle [3]?
A: 0.03 ± 0.01 %ID/g and 0.033 ± 0.012 %ID/g

Q: And the uptake in thyroid [3]?
A: 0.24 ± 0.06 %ID/g

Q: What about the uptake in tumor [3] of the same compound?
A: 0.43 ± 0.06 %ID/g

Q: And the uptake in brain [4]?
A: 0.007 ± 0.002 %ID/g

Q: And the uptake in muscle [4]?
A: 0.04 ± 0.02 %ID/g

Q: And the uptake in tumor [4]?
A: 0.50 ± 0.08 %ID/g

Q: Which results are given for `O=C(CCc1ccc(I)cc1)N1CCN(C(=O)c2cc(Cc3n[nH]c(=O)c4ccccc34)ccc2F)CC1` [I6-PARPi, 4-(4-fluoro-3-(4-(3-(4-iodophenyl)propanoyl)piperazine-1-carbonyl)benzyl) phthalazin-1(2H)-one]?
A: CHI (chromatographic hydrophobicity index) [5]: 71.6; fraction unbound at 4 h, 10 μM [6]: 0.047 ± 0.005; IC50 [7]: 47 ± 5 nM

Q: For `O=C(c1cccc(I)c1)N1CCN(C(=O)c2cc(Cc3n[nH]c(=O)c4ccccc34)ccc2F)CC1` [I1-PARPi, 4-(4-fluoro-3-(4-(3-iodobenzoyl)piperazine-1-carbonyl)benzyl)phthalazin-1(2H)-one], which fraction unbound at 4 h, 10 μM [6] is on record?
A: 0.096 ± 0.015

Q: For `Cc1cc(C)n2c1C=C1C=CC(CCC(=O)N3CCN(C(=O)c4cc(Cc5n[nH]c(=O)c6ccccc56)ccc4F)CC3)=[N+]1[B-]2(F)F` [PARPi-FL, reference compound], which “tumor fluorescence, average radiant efficiency” value ([8]; PARPi-FL 2.5 mg/kg alone) is on record?
A: 2.03 × 10^8 ± 1.84 × 10^7

Q: Which results are given for `O=C(Cc1ccc(I)cc1)N1CCN(C(=O)c2cc(Cc3n[nH]c(=O)c4ccccc34)ccc2F)CC1` [I4-PARPi, 4-(4-fluoro-3-(4-(2-(4-iodophenyl)acetyl)piperazine-1-carbonyl)benzyl)phthalazin-1(2H)-one]?
A: CHI (chromatographic hydrophobicity index) [5]: 66.7; fraction unbound at 4 h, 10 μM [6]: 0.05 ± 0.003; IC50 [7]: 74 ± 5 nM

Q: For `O=C(c1ccc(I)cc1)N1CCN(C(=O)c2cc(Cc3n[nH]c(=O)c4ccccc34)ccc2F)CC1` [I2-PARPi, 4-(4-fluoro-3-(4-(4-iodobenzoyl)piperazine-1-carbonyl)benzyl)phthalazin-1(2H)-one], which fraction unbound at 4 h, 10 μM [6] is on record?
A: 0.115 ± 0.001

Q: And the “reduction of PARPi-FL tumor fluorescence in vivo” value ([8]; I2-PARPi 125 mg/kg 30 min before PARPi-FL 2.5 mg/kg, tumors resected 1 h post injection, vs PARPi-FL alone)?
A: 78 ± 4%

Q: For `O=C(CCc1cccc(I)c1)N1CCN(C(=O)c2cc(Cc3n[nH]c(=O)c4ccccc34)ccc2F)CC1` [I5-PARPi, 4-(4-fluoro-3-(4-(3-(3-iodophenyl)propanoyl)piperazine-1-carbonyl)benzyl)phthalazin-1(2H)-one], which “CHI (chromatographic hydrophobicity index)” value [5] is on record?
A: 71.6

Q: What about the fraction unbound at 4 h, 10 μM [6] of the same compound?
A: 0.078 ± 0.014

Q: What about the IC50 [7] of the same compound?
A: 107 ± 4 nM

Q: Which logPCHI ([5]; derived from CHI by equation) does the source give for `O=C(c1cc(Cc2n[nH]c(=O)c3ccccc23)ccc1F)N1CCN(C(=O)C2CC2)CC1` [Olaparib] here?
A: 0.8

Q: And the “reduction of PARPi-FL uptake (fluorescence signal)” value (U87 MG cells; 25 µM)?
A: 73 ± 11%

Q: What about the “reduction of PARPi-FL uptake (fluorescence signal)” value (U87 MG cells; PARPi-FL 250 nM, inhibitor 25 μM (100-fold), U87 MG cells) of the same compound?
A: 73 ± 10%

Q: For `O=C(Cc1cccc(I)c1)N1CCN(C(=O)c2cc(Cc3n[nH]c(=O)c4ccccc34)ccc2F)CC1` [I3-PARPi, 4-(4-fluoro-3-(4-(2-(3-iodophenyl)acetyl)piperazine-1-carbonyl)benzyl)phthalazin-1(2H)-one], which “CHI (chromatographic hydrophobicity index)” value [5] is on record?
A: 66.7

Q: What about the fraction unbound at 4 h, 10 μM [6] of the same compound?
A: 0.07 ± 0.001

Q: What about the IC50 [7] of the same compound?
A: 34 ± 3 nM
